Where “and” joins values, the source holds several entries; their conditions need not be identical. Equal values may be shown once. Where a name gives a salt, the structure may show the parent alone. Read-outs that look alike come from different tables or passages of the source.
How the values were obtained:
Format in all cases: in vivo
[1] = system: Male Sprague-Dawley rats; experiment: Spinal anesthetic effect (spinal blockade) after intrathecal injection in rats; design: AUC of time-% PE curve, spinal blockade of motor function / AUC of time-% PE curve, spinal blockade of proprioception / AUC of time-% PE curve, spinal blockade of nociceptive reaction: unit not given beside the values; details: for AUC of time-% PE curve, spinal blockade of motor function / AUC of time-% PE curve, spinal blockade of nociceptive reaction / AUC of time-% PE curve, spinal blockade of proprioception: 2 ED50 when administered independently, ED50 of each drug when co-administered, mean ± SEM; for Motor function ED50 (95% CI): spinal blockade of motor function; for Motor function ED50 (95% CI) / Nociceptive reaction ED50 (95% CI) / Proprioception ED50 (95% CI): intrathecal injection; for Nociceptive reaction ED50 (95% CI): spinal blockade of nociceptive reaction; for Proprioception ED50 (95% CI): spinal blockade of proprioception; for Mean value ED25 / Mean value ED50 / Mean value ED75: spinal blockade, mean of motor function, proprioception and nociceptive reaction
Protocol: (§1) Male Sprague-Dawley rats (weighing about 300 to 350 g); for each dose of each drug, n=6.
In brief, for preparation, the hairs on the back of each rat were shaved, and the shaved back was sterilized with iodine.
After three minutes, 50 μL of each of the tested drugs was injected via a 27-gauge needle attached to a 100-μL syringe (Hamilton, Reno, Nev.) into the intrathecal space between the fourth and fifth lumbar vertebrae. The development of spinal blockade was observed from the paralysis of the hind limbs of the rats.
The magnitude of nerve block (including blocking of motor function, proprioception, and nociceptive reaction) was expressed as the percentage of possible effect (hereinafter referred to as % PE), and the maximal value of % PE was expressed as the percentage of maximal possible effect (hereinafter referred to as % MPE).
Motor function was evaluated by measuring the extensor postural thrust of the right hind limbs of the rats using a digital platform balance (Mettler Toledo, Switzerland, model PB1502-S). To test the extensor postural thrust, the rat was held upright with the hind limb extended, so that the body weight of the rat was supported by the distal metatarsus and toes. The extensor postural thrust could be measured as the force of the right hind limb of the rat thrusting the platform balance.
A reduction in the force, resulting in extensor muscle tone, was considered as a motor deficit. A force less than 20 g (i.e., a weight of the “flaccid limb”) was considered absence of an extensor postural thrust or 100% motor block or 100% MPE.
Proprioception was evaluated based on resting posture and postural reactions (including tactile placing and hopping). First, the front half of the rat body and one of the hind limbs were lifted off the ground at the same time so that the rat was standing on one hind limb. Then, the rat was moved laterally, which normally evoked a prompt hopping response of the weight-bearing hind limb of the rat in the direction of movement so as to avoid falling. A predominantly proprioceptive block caused a delayed hopping followed by greater lateral hops. […] Functional deficits were classified into four grades: 3 (normal or 0% MPE), 2 (slightly impaired), 1 (severely impaired), and 0 (completely impaired or 100% MPE).
Nociceptive reaction was evaluated by the withdrawal reflex or vocalization elicited by the pinch of a skin fold over the back at 1 cm near the proximal part of the tail, the lateral metatarsus of the bilateral hind limbs, and the dorsal part of the mid-tail. At each testing time, only one pinch was given to each of the abovementioned four testing sites, and the time interval between stimulations at different sites was around 2 seconds. Nociceptive reactions were classified into five grades: 4 (normal or 0% MPE), 3 (25% MPE), 2 (50% MPE), 1 (75% MPE), and 0 (absent or 100% MPE).
The potency of each drug on spinal blockades was compared using ED50.
Duration was defined as the interval from injection of the tested drugs to complete recovery. The ED25, ED50 and ED75 obtained according to the SAS NLIN analysis in the preceding section “C. Potency evaluation” were used in this experiment.
Regarding the method of evaluating the effect of co-administration, dextromethorphan hydrobromide monohydrate was used as an example.
After the tests, the time of measurement of each drug and its corresponding % PE were plotted to obtain the time-% PE curves of each drug. The area under the curve (AUC) of time-% PE was calculated using the trapezoidal rule, and was used to evaluate the effect of the co-administration of the drugs.
Statistical software, SPSS for Windows® (version 10.0.7) was used. Data were represented as mean±SEM.

[2] = system: sciatic nerve; experiment: Sciatic nerve blockade after injection at the sciatic nerve notch in rats; design: AUC of time-% PE curve, sciatic nerve blockade of motor function / AUC of time-% PE curve, sciatic nerve blockade of proprioception / AUC of time-% PE curve, sciatic nerve blockade of nociceptive reaction: unit not given beside the values; details: for ED50: Rattus norvegicus
Protocol: as §1
In brief, the rats were slightly anesthetized by inhalation of a low concentration of sevoflurane. Then, 200 μL of tested drugs were injected at the sciatic nerve notch at the left hind limb of the rat using a 27-gauge needle connected to a tuberculin syringe (Becton Dickinson, USA, model BND309623-BX). Thereafter, development of sciatic nerve blockade was observed from the paralysis of the left hind limb of the rat. The right hind limb served as a control during the subsequent functional assay
For proprioception, the front half of the rat body and the right hind limb were off the ground at the same time so that the rat was standing on the left hind limb during the measurement.
The differences resided in that: The sciatic nerve notch injections of ED25, ED50 and ED75 were conducted based on the method described in the preceding section “A. Drug injection” of this example. Evaluations of motor function, proprioception and nociceptive reaction were conducted based on the method described in section “B. Neurobehavioral evaluations” of this example.
The differences resided in that: Before the statistical analysis, Shapiro-Wilk test was used to evaluate whether the data were, theoretically, normally distributed.

[3] = system: Male Sprague-Dawley rats; experiment: Infiltrative cutaneous anesthesia (inhibition of cutaneous trunci muscle reflex, CTMR) after subcutaneous injection in rats
Protocol: Male Sprague-Dawley rats (weighing about 200 to 250 g); for each dose of each drug, n=8.
In brief, hairs on the dorsal surface (about 10×10 cm^2) of the thoracolumbar region of the rat were shaved, and the shaved surface was sterilized with iodine for preparation. To reduce the number of animals used, the back of the rat was further divided into left and right parts. One drug was injected first at the right part. After a washout period of one week, another drug was injected at the left part.
0.6 mL of drug was injected subcutaneously under the dorsal surface of the thoracolumbar region of the rat using a 30-gauge needle attached to a syringe (Becton Drive, Franklin Lakes, USA). The subcutaneous injection would result in a circular elevation (i.e., a wheal) of the skin, about 2 cm in diameter. The elevation was marked with ink within 1 minute after injection.
CTMR refers to the reflex movement of the skin of the back caused by twitching of the lateral thoracispinal muscle in response to local dorsal cutaneous stimulation. Essentially, a von Frey filament (No.15; Somedic Sales AB, Sweden) to which a cut end of an 18-gauge needle was affixed was used to produce a standard nociceptive stimulus (strength: 19 g). Six pinpricks (at a frequency of 0.5-1 Hz) were applied to a single marked wheal during each test. […] For example, absence of any response to all of the 6 pinpricks was defined as a complete nociceptive block (i.e., 100% MPE).
The difference resided in that subcutaneous injections of ED25, ED50 and ED75 of the drugs were performed based on the method described in the section “A. Drug injection” of this example, and evaluation of the infiltrative cutaneous anesthetic effect was performed based on the method described in the section “B. Neurobehavioral evaluation” of this example.

[4] = intrathecal dose of ED75, injection to complete recovery, rats
[5] = intrathecal dose of ED75, rats, mean±SEM
[6] = intrathecal, rats, hydrochloride
[7] = read-out: Motor function ED50 (95% CI)
[8] = read-out: Nociceptive reaction ED50 (95% CI)
[9] = read-out: Proprioception ED50 (95% CI)
[10] = dosage of 6.7 mg/kg, sciatic nerve notch injection, rats
[11] = infiltrative cutaneous anesthesia, rats, 2ED50 when administered independently, ED50 for co-administration, mean ± SEM, hydrochloride
[12] = infiltrative cutaneous anesthesia, subcutaneous injection, rats
[13] = subcutaneous dose of ED75, rats, mean±SEM
[14] = rats, 2ED50 when administered independently, ED50 of each drug when co-administered, mean ± SEM

## CCCCN1CCCCC1C(=O)Nc1c(C)cccc1C (centres unmarked) [Bupivacaine hydrochloride, reference compound]
[1]; [4]
  duration of spinal blockade of motor function: about 25±3 minutes
  duration of spinal blockade of nociceptive reaction: ~63 ± 7 min
  duration of spinal blockade of proprioception: ~32 ± 4 min
[1]; [5]
  % MPE of spinal blockade of motor function: about 71±3 % MPE
  % MPE of spinal blockade of nociceptive reaction: ~81±3 % MPE
  % MPE of spinal blockade of proprioception: ~72±4 % MPE
[1]; [6]
  AUC of time-% PE curve, spinal blockade of motor function: 1292 ± 113 and 1238 ± 147 and 1383 ± 131
  AUC of time-% PE curve, spinal blockade of nociceptive reaction: 4378 ± 184 and 4512 ± 229 and 4410 ± 225
  AUC of time-% PE curve, spinal blockade of proprioception: 2597 ± 245 and 2638 ± 308 and 2774 ± 299
[1]; rats
  Motor function ED50 (95% CI): 0.12 (0.11–0.12) mg
  Nociceptive reaction ED50 (95% CI): 0.09 (0.08–0.09) mg
  Proprioception ED50 (95% CI): 0.10 (0.10–0.11) mg
[1]; intrathecal, rats
  Mean value ED25: 0.08 mg
  Mean value ED50: 0.11 mg
  Mean value ED75: 0.14 mg

## CCN(CC)CC(=O)Nc1c(C)cccc1C [Lidocaine hydrochloride, reference compound]
[2]; [7]
  ED50: 2.67 mg/kg
[2]; [8]
  ED50: 2.35 mg/kg
[2]; [9]
  ED50: 2.57 mg/kg
[2]; [10]
  % MPE of sciatic nerve blockade of motor function: 100 % MPE
  % MPE of sciatic nerve blockade of nociceptive reaction: 100 % MPE
  % MPE of sciatic nerve blockade of proprioception: 100 % MPE
  duration of sciatic nerve blockade of motor function: about 63±6 minutes
  duration of sciatic nerve blockade of nociceptive reaction: ~83 ± 6 min
  duration of sciatic nerve blockade of proprioception: ~73 ± 4 min
[3]; Rattus norvegicus, sc, infiltrative cutaneous anesthesia, subcutaneous injection, rats, read-out: ED50 (95% CI)
  ED50: 7 mg/kg
[3]; [11]
  % MPE: 90 ± 5 % MPE and 88 ± 6 % MPE
  Duration: 51 ± 3 min and 52 ± 4 min
[3]; [12]
  ED25: 5.31 mg/kg
  ED75: 9.24 mg/kg
[3]; [13]
  % MPE of cutaneous nociceptive block: 72±7 % MPE
  duration of cutaneous nociceptive block: ~33 ± 4 min

## COc1ccc2c(c1)[C@@]13CCCC[C@H]1[C@@H](C2)NCC3.Cl [3-methoxymorphinan hydrochloride]
[2]; ED50 basis, p<0.01, rats
  sciatic nerve blocking effect on nociceptive reaction compared with motor function: more potent sciatic nerve blocking effect on nociceptive reaction than on motor function
[2]; read-out: Mean ED50
  ED50: 6.68 mg/kg
[2]; [7]
  ED50: 7.4 mg/kg
[2]; [8]
  ED50: 5.89 mg/kg
[2]; [9]
  ED50: 6.76 mg/kg
[2]; rats, ED50 of each drug
  effect of co-administration with lidocaine hydrochloride on sciatic nerve blockades: additive effect
[2]; [14]
  AUC of time-% PE curve, sciatic nerve blockade of motor function: 4559 ± 584
  AUC of time-% PE curve, sciatic nerve blockade of nociceptive reaction: 8026 ± 1437
  AUC of time-% PE curve, sciatic nerve blockade of proprioception: 5191 ± 652
[2]; same effective doses (ED25, ED50 or ED75), rats
  duration of sciatic nerve blockade compared with lidocaine hydrochloride: longer reaction duration
[1]; intrathecal dose of ED75, rats
  % MPE of spinal blockades of motor function, proprioception and nociceptive reaction (range over the three functions): 66-79 % MPE
  duration of spinal blockades of motor function, proprioception and nociceptive reaction (range over the three functions): 28 to 35 min
[1]; intrathecal, rats, ED50 of each drug
  effect of co-administration with bupivacaine hydrochloride on spinal blockade: additive effect
[1]; intrathecal, rats
  AUC of time-% PE curve, spinal blockade of motor function: 1265 ± 232
  AUC of time-% PE curve, spinal blockade of nociceptive reaction: 2081 ± 227
  AUC of time-% PE curve, spinal blockade of proprioception: 1917 ± 254
  Mean value ED25: 0.33 mg
  Mean value ED50: 0.41 mg
  Mean value ED75: 0.53 mg
[1]; rats
  Motor function ED50 (95% CI): 0.45 (0.43–0.47) mg
  Nociceptive reaction ED50 (95% CI): 0.39 (0.37–0.42) mg
  Proprioception ED50 (95% CI): 0.40 (0.38–0.43) mg
